# Source: patent US9194862B2, “Compositions and methods for determining cancer stem cell self-renewal potential” (THE REGENTS OF THE UNIVERSITY OF CALIFORNIA, priority 2009, dated 2015)
# Assays:
# [1] = system: progenitors (CD34+CD38+Lin−) from CML BC-derived tumors; assay: CML BC progenitor engraftment in transplanted mice, FACS of human CD45+ cells in liver; assay type: in vivo; conditions: oral gavage daily for 3 weeks, 120 μg/kg, vs vehicle, FACS of livers, n=4 vs n=5, p=0.03
# Procedure: Briefly, immunocompromised neonatal mice were transplanted intrahepatically with luciferase GFP transduced myeloid sarcomas from mice transplanted with BC CSC, the methodology described in Geron et al, Cancer Cell 2008; 13(4):321-30. […] Engraftment levels were determined by FACS analysis of human CD45^+ expression in mouse livers on […] post-transplant.
# FIG. 3C. Left: qPCR analysis of Mcl-1 long (blue) and short (red) transcripts from progenitors (CD34^+CD38^+Lin^−) of several normal and CML samples. […] FIG. 4 below. […] FIG. 4A. […] Representative FACS data of CD45^+ cells in mouse livers transplanted with progenitors (CD34^+CD38^+Lin^−) from CML BC-derived tumors. […] Mouse livers were harvested at 13 weeks post-transplant, stained, and analyzed for human CD45^+ cells using FACS. • FIG. 4C.
# [2] = system: Mcl-1 long and short isoform; assay: qPCR of Mcl-1 long and short isoforms in tumor cells harvested from treated mice; assay type: in vivo; conditions: tumor cells from treated mice (n=3) vs vehicle (n=2)
# Excerpt: For gene expression analysis, cDNA was made from RNA isolated from sorted progenitor populations (CD34^+CD38^+Lin^−). Isoform specific RT-PCR was used to determine expression levels of Bcl-2, Bcl-X, and Mcl-1 isoforms. Expression was confirmed using qPCR.
compound,measurement,setting,value
Cc1cc2c(C(C)C)c(O)c(O)cc2c(O)c1-c1c(C)cc2c(C(C)C)c(O)c(O)cc2c1O [apogossypol],number/frequency of human CD45+ cells engrafted in the mouse liver (tumor cell engraftment),[1],statistically significant (p=0.03) decrease in tumor cell engraftment
same,number/frequency of human CD45+ cells engrafted in the mouse liver (tumor cell engraftment),[1]; listed as Apogossypol,statistically significant decrease
same,Mcl-1 short isoform expression,[2],higher Mcl-1 short isoform expression
